pIC50: −log10 of the molar value.
What was measured:
U-87 MG cells = experiment: PET imaging test of radiolabelled compounds in U-87 MG tumour-bearing mice; assay type: in vivo, BALB/c nude mice
Description: Cell information: U-87 MG cells (Wuhan Pricella Biotechnology Co., Ltd., Cat. No.: CL-0238, Lot No.: YBMIL8BQHO); Culture conditions: U-87 MG cell specific medium (MEM + 10% FBS + 1% P/S); Number of passages: 6-9;
Germline: BALB/c nude mice; age: 4-5 weeks old; Body weight: 15-22 g;
A sufficient quantity of U-87 MG cells was prepared and inoculated into the posterior position of the right forelimb of […] mice in an inoculation volume of 100 µL, containing 50% Matrigel and 4 × 10^6 cells.
The workbench surface was wiped with 75% medical alcohol and covered with a disposable sterile tablecloth. 0.5 mL insulin syringes, alcohol swabs, cotton swabs and a marking pen were prepared in the injection room. The mice were placed in a mouse restrainer, and the tails of the mice were disinfected with alcohol swabs. 0.2-0.5 mL of the formulated test sample was injected into each mouse via the tail vein, with the time of each injection, the activity of the syringe and the activity of the empty syringe recorded. Tumour-bearing mice were anesthetized with isoflurane, then placed in a prone position on small animal PET beds and fixed. PET static image acquisition was performed for 10 min at 0.5 h, 1 h, 2 h and 4 h after administration; a whole-body CT scan was performed before each static scan to obtain distribution images of the labelled compound throughout the body of tumour-bearing mice. PET images at different time points after administration were obtained for each experimental animal. Major organs were selected and delineated, specifically including: parts such as tumour, muscle, bone, lung, brain, liver and kidney. The radioactive accumulation and clearance of the labelled compounds in tumours and non-target tissues of tumour-bearing mice were observed.
Using the same experimental method as in Example 2, the ratio of radioactive accumulation of the labelled compound ^18F-FAPI-42 in tumours to non-target tissues in tumour-bearing mice was observed. Table 4.1 Ratios of 18F-FAPI-42 in tumours to non-target organs (tissues)

FAPα enzyme = biological target: T1, FAPα enzyme (Homo sapiens, UniProt Q12884); experiment: FAPα enzyme activity test (Z-Gly-Pro-AMC substrate, fluorescence); assay type: biochemical; settings: for inhibition at 0.1 µM: read-out: Inhibition rate 100 nM; for IC50 value against FAPα enzyme, times that of the positive drug FAPI-04: relative to FAPI-04
T1 sequence (Q12884 1-760): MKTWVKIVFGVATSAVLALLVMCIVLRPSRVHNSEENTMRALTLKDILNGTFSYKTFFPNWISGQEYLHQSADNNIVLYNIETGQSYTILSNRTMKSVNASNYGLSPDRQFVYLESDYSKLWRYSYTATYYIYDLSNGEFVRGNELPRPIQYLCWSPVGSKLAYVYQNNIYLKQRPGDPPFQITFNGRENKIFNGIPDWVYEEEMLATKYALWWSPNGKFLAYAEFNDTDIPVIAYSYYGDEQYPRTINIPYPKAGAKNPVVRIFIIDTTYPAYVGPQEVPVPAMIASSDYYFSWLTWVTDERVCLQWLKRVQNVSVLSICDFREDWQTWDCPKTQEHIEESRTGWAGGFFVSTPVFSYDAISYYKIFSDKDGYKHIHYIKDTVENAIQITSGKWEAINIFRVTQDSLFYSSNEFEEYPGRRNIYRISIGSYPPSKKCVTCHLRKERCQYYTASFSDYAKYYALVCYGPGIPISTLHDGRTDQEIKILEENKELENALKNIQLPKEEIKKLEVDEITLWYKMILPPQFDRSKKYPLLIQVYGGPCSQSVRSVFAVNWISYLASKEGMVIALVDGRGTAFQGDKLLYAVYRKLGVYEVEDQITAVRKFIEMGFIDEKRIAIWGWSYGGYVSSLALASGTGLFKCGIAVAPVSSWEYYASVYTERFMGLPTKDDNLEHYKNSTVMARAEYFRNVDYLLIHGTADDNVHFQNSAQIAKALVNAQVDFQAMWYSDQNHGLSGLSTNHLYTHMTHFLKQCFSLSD
Description: The substrate (Z-Gly-Pro-AMC) was diluted with DMSO to prepare a 0.5 mM stock solution. Before each experiment, the 0.5 mM stock solution was diluted with PBS to 50 µM for later use. The FAPα protein was diluted with PBS to 0.5 ng/µl for later use. The test compounds and positive control were diluted with PBS to a concentration of 100 nM or 200 nM for the determination of single-point inhibition rate. […] The test compounds and positive control were subjected to a 5-fold serial dilution with PBS to obtain 8 gradients for later use, with the highest concentration being 10 µM, and the lowest concentration being […]. Test method: 85 µl of the FAPα dilution and 10 µl of the compound dilution were added to a microplate, uniformly mixed and incubated at 37°C for 10 min. Then, 5 µL of 50 µM substrate was added, uniformly mixed and incubated at 37°C for 10 min. The microplate was read on a microplate reader, with an excitation wavelength of 380 nm and an emission wavelength of 465 nm.

## N#C[C@@H]1CC(F)(F)CN1C(=O)CNC(=O)c1ccnc2ccc(OCCCN3CCN(C(=O)CN4CCN5CCN(CC4)CC(=O)[O][Al]([18F])[O]C(=O)C5)CC3)cc12 [^18F-FAPI-42]
U-87 MG cells; 0.5 h
  Ratio Tumour/gallbladder: 1.21
  Ratio Tumour/intestine: 3.14
U-87 MG cells; 1.5 h
  Ratio Tumour/gallbladder: 1.42
  Ratio Tumour/intestine: 1.28
U-87 MG cells; 3.0 h
  Ratio Tumour/gallbladder: 3.15
  Ratio Tumour/intestine: 1.19

## N#C[C@@H]1CC(F)(F)CN1C(=O)CNC(=O)c1ccnc2ccc(OCCCN3CCN(C(=O)CN4CCN(CC(=O)[O-])CCN(CC(=O)[O-])CCN(CC(=O)[O-])CC4)CC3)cc12.[68Ga+3] [^68Ga-FAPI-04]
U-87 MG cells; 0.5 h
  Ratio Tumour/brain: 6.36
  Ratio Tumour/gallbladder: 4.89
  Ratio Tumour/kidney: 3.35
  Ratio Tumour/liver: 4.79
  Ratio Tumour/lung: 4.73
  Ratio Tumour/muscle: 15.38
  Ratio Tumour/shoulder joint: 2.62
U-87 MG cells; 0.5 h after administration
  Uptake Brain: 1.16 ± 0.28 % ID/g
  Uptake Gallbladder: 1.51 ± 0.18 % ID/g
  Uptake Kidney: 2.20 ± 0.10 % ID/g
  Uptake Liver: 1.54 ± 0.23 % ID/g
  Uptake Lung: 1.56 ± 0.45 % ID/g
  Uptake Muscle: 0.48 ± 0.39 % ID/g
  Uptake Shoulder joint: 2.82 ± 0.57 % ID/g
  Uptake Tumour (max): 13.17 ± 3.28 % ID/g
  Uptake Tumour (mean): 7.38 ± 1.41 % ID/g
U-87 MG cells; 1.0 h
  Ratio Tumour/brain: 9.13
  Ratio Tumour/gallbladder: 5.46
  Ratio Tumour/kidney: 3.42
  Ratio Tumour/liver: 5.76
  Ratio Tumour/lung: 5.81
  Ratio Tumour/muscle: 13.89
  Ratio Tumour/shoulder joint: 2.72
U-87 MG cells; 1 h after administration
  Uptake Brain: 0.70 ± 0.09 % ID/g
  Uptake Gallbladder: 1.17 ± 0.36 % ID/g
  Uptake Kidney: 1.87 ± 0.20 % ID/g
  Uptake Liver: 1.11 ± 0.31 % ID/g
  Uptake Lung: 1.10 ± 0.12 % ID/g
  Uptake Muscle: 0.46 ± 0.10 % ID/g
  Uptake Shoulder joint: 2.35 ± 0.44 % ID/g
  Uptake Tumour (max): 10.98 ± 2.02 % ID/g
  Uptake Tumour (mean): 6.39 ± 0.92 % ID/g
U-87 MG cells; 2.0 h
  Ratio Tumour/brain: 8.95
  Ratio Tumour/gallbladder: 5.34
  Ratio Tumour/kidney: 3.42
  Ratio Tumour/liver: 5.71
  Ratio Tumour/lung: 5.71
  Ratio Tumour/muscle: 10.21
  Ratio Tumour/shoulder joint: 2.77
U-87 MG cells; 2 h after administration
  Uptake Brain: 0.65 ± 0.21 % ID/g
  Uptake Gallbladder: 1.09 ± 0.36 % ID/g
  Uptake Kidney: 1.70 ± 0.17 % ID/g
  Uptake Liver: 1.02 ± 0.23 % ID/g
  Uptake Lung: 1.02 ± 0.21 % ID/g
  Uptake Muscle: 0.57 ± 0.27 % ID/g
  Uptake Shoulder joint: 2.10 ± 0.36 % ID/g
  Uptake Tumour (max): 10.38 ± 2.02 % ID/g
  Uptake Tumour (mean): 5.82 ± 1.01 % ID/g
U-87 MG cells; 4.0 h
  Ratio Tumour/brain: 8.20
  Ratio Tumour/gallbladder: 4.75
  Ratio Tumour/kidney: 3.34
  Ratio Tumour/liver: 4.47
  Ratio Tumour/lung: 5.43
  Ratio Tumour/muscle: 10.74
  Ratio Tumour/shoulder joint: 2.59
U-87 MG cells; 4 h after administration
  Uptake Brain: 0.55 ± 0.17 % ID/g
  Uptake Gallbladder: 0.95 ± 0.46 % ID/g
  Uptake Kidney: 1.35 ± 0.23 % ID/g
  Uptake Liver: 1.01 ± 0.29 % ID/g
  Uptake Lung: 0.83 ± 0.20 % ID/g
  Uptake Muscle: 0.42 ± 0.10 % ID/g
  Uptake Shoulder joint: 1.74 ± 0.42 % ID/g
  Uptake Tumour (max): 12.40 ± 0.85 % ID/g
  Uptake Tumour (mean): 4.51 ± 0.28 % ID/g

## N#C[C@@H]1CC(F)(F)CN1C(=O)CNC(=O)c1ccnc2ccc(NC(=O)[C@H]3CC[C@H](CNC(=O)CN4CCN(CC(=O)O)CCN(CC(=O)O)CCN(CC(=O)O)CC4)CC3)cc12 [Compound 1, 6-(trans-4-(((2-(4,7,10-tricarboxymethyl-1,4,7,10-tetraazacyclododecan-1-yl)acetyl)amino)methyl)cyclohexan-1-yl)carboxamido-4-((S)-2-(2-cyano-4,4-difluoropyrrolidin-1-yl)-2-oxoethyl)carbamoylquinoline]
FAPα enzyme
  pIC50: 9.14
FAPα enzyme; 100 nM compound
  inhibition at 0.1 µM: 84.1%

## N#C[C@@H]1CC(F)(F)CN1C(=O)CNC(=O)c1ccnc2ccc(NC(=O)C3CCC4(CC3)CN(C(=O)CN3CCN(CC(=O)O)CCN(CC(=O)O)CCN(CC(=O)O)CC3)CCO4)cc12 (stereo partly drawn) [Compound 3, 6-((6r,9r)-N-(2-(4,7,10-tricarboxymethyl-1,4,7,10-tetraazacyclododecan-1-yl)acetyl)-1-oxa-4-azaspiro[5.5]undecan-9-yl)carboxamido-4-((S)-2-(2-cyano-4,4-difluoropyrrolidin-1-yl)-2-oxoethyl)carbamoylquinoline]
FAPα enzyme
  pIC50: 9.24
FAPα enzyme; 100 nM compound
  Inhibition rate 100 nM: 84.70%

## N#C[C@@H]1CC(F)(F)CN1C(=O)CNC(=O)c1ccnc2ccc(OCCCN3CCN(C(=O)CN4CCN(CC(=O)O)CCN(CC(=O)O)CCN(CC(=O)O)CC4)CC3)cc12 [FAPI-04]
FAPα enzyme; 100 nM compound
  inhibition at 0.1 µM: 92.3%

## N#C[C@@H]1CC(F)(F)CN1C(=O)CNC(=O)c1ccnc2ccc(OCCCN3CCN(C(=O)CN4CCN(CC(=O)O)CCN(CC(=O)O)CC4)CC3)cc12 [FAP-42]
FAPα enzyme
  IC50 value against FAPα enzyme, times that of the positive drug FAPI-04: 2.27 times

## N#C[C@@H]1CC(F)(F)CN1C(=O)CNC(=O)c1ccnc2ccc(NC(=O)[C@H]3CC[C@H](CNC(=O)CN4CCN(CC(=O)O)CCN(CC(=O)O)CC4)CC3)cc12 (relative stereo) [Compound 2, 6-(trans-4-(((2-(4,7-dicarboxymethyl-1,4,7-triazacyclononan-1-yl)acetyl)amino)methyl)cyclohexan-1-yl)carboxamido-4-((S)-2-(2-cyano-4,4-difluoropyrrolidin-1-yl)-2-oxoethyl)carbamoylquinoline]
FAPα enzyme
  IC50 value against FAPα enzyme, times that of the positive drug FAPI-04: 0.71 times

From EP4711362A1, “LIGAND TARGETING FIBROBLAST ACTIVATION PROTEIN” (Jiangsu Hengrui Pharmaceuticals Co., Ltd., priority 2023, dated 2024)
